Data from patent US20210122780A1, “COMPOSITIONS FOR THE PREVENTION AND TREATMENT OF PARKINSON'S DISEASE” (Metselex, Inc., priority 2018, published 2021).
Entries after “also recorded” stand apart in the source; their conditions may differ. Where two headings read alike, the source gives them in different places.

Legend:
[1] = Stability in tris glycine buffer before AP addition (31P NMR); assay type: physicochemical; conditions: 0.100 M tris glycine buffer, 1.0 mM ZnCl2, 1.0 mM MgCl2, 1 h
Protocol: (§1) Compound 19d (10.0 mg, 0.016 mmol) or compound 3 (8.7 mg, 0.016 mmol) were dissolved in 0.6 mL of a 0.100 M tris glycine buffer solution containing 1.0 mM ZnCl2 and 1.0 mM MgCl2. […] 50 μL of the previously prepared AP stock solution was further diluted by addition to 0.950 mL of a 0.100 M tris glycine buffer containing 1.0 mM ZnCl2 and 1.0 mM MgCl2. 10.0 μL of this diluted AP solution was added to the prodrug solution by syringe. A series of 42 inverse-gated decoupled ^31P NMR's were taken (24 scans each, approximately one minute acquisition time). Conversion (%) was determined from the relative integration of the starting material and product peaks, NMR time stamps were used to determine time. Each experiment was repeated three times.

[2] = assay type: physicochemical; conditions: for percent starting material remaining: after one week at rt in D2O solution; for stability on cold storage: stored in a freezer / cold
Protocol: Measurement of chemical stability of phosphorylated compounds. 4.0 mg of prodrug (19b, 19c, or 19d) were dissolved in 1.0 mL D2O. A sealed capillary tube containing phenylphosphonic acid dissolved in D2O was added as a standard. At time=0, a ^1H NMR spectrum was obtained and the proton signal at […]5.51 was integrated (It=0) relative to the aromatic signals from phenylphosphonic acid. After 7 days at rt, a new NMR spectrum was taken and the proton signal at δ 5.51 was integrated again (It=7). The percent starting material remaining was It=7/It=0×100. Each experiment was repeated three times. Chemical stability results obtained either by measuring the disappearance of starting material relative to the internal standard by ^31P NMR or by using inverse-gated decoupled phosphorus NMR and integrating starting material and product were very similar to the numbers obtained using ^1H NMR. For 19e, 4.0 mg 19b was dissolved in D2O and an additional equivalent of Tris added (the stoichiometry was confirmed by ^1H NMR) and the experiment conducted as above.

[3] = Aqueous solubility of prodrug salts; conditions: water
[4] = assay type: physicochemical; conditions: after one day at rt
Protocol: Chemical stability in pH 7.4 tris-buffered saline. 4.0 mg of prodrug 19d was dissolved in 0.9 mL H2O. To this solution was added 0.1 mL of tris-buffered saline (BM-300 from Boston BioProducts), containing tris (250 mM), KCl (27 mM), and NaCl (1.37 M). A sealed capillary tube containing phenylphosphonic acid dissolved in D2O was added as a standard. Chemical stability results were obtained by measuring the disappearance of starting material relative to the internal standard by ^31P NMR. The experiment was repeated three times. The standard deviation was ±3%.

[5] = tested on: Alkaline phosphatase from bovine intestinal mucosa; experiment: Alkaline phosphatase activation of prodrugs (31P NMR); assay type: biochemical; conditions: in vitro, FIG. 5
Protocol: Alkaline phosphatase activation of prodrugs 3 and 19d. Alkaline phosphatase from bovine intestinal mucosa (Sigma-Aldrich, P5521-2KU) was dissolved in 2.0 mL of a 0.100 M sodium glycine buffer containing 1.0 mM ZnCl2 and 1.0 mM MgCl2. This stock solution was stored at 4° C. between uses.
as §1

SH-SY5Y cells [6] = tested on: SH-SY5Y cells
Protocol: (§3) Human dopaminergic neuronal cell line, SH-SY5Y, was cultured in DMEM/F12 medium supplemented with 10% FBS (v/v), penicillin (100 U/m)-streptomycin (100 μg/ml) in 5% CO2 at 37° C. […] Usually, the culture medium was changed to DMEM/F12 medium with 0.5% FBS before any treatment to reduce the serum effect. In order to prevent the direct interaction between the treated chemicals, the culture medium was changed to fresh low-serum medium at the ent of pretreatment. UDCA was dissolved in ethanol as a 100× stock solution and diluted to the desired final concentrations. To estimate cell viability, 3-(4,5-dimetnylthiazol-2-yl)-2,5-diphenyltetrazolium bromide (MTT) reduction assay was performed. After cells were treated ad culture medium was removed, MTT solution (50 μg, 1 mg/ml in phosphate buffered saline, PBS) was added to each well in 96-well plate and incubated for 4 h at 37° C. The medium was carefully removed, 100 μl DMSO added to each well, and the plate agitated on an orbital shaker for 15 min to dissolve the formazan. The absorbance was measured at 540 nm using a microplate reader (SepctraMax M2, Molecular Devices).

SH-SY5Y cells [7] = experiment: MTT cell viability, SNP-induced cytotoxicity; conditions: for impact on UDCA-mediated protection against SNP-induced cytotoxicity: inhibitor 1 h, UDCA 200 μM 1 h, SNP 1 mM 24 h
Protocol: as §3

mitochondrial membrane = experiment: Bax-induced alterations of mitochondrial membrane (FIG. 1, 2)
SH-SY5Y cells [8] = experiment: Mitochondrial membrane potential (JC-1); assay type: cell-based, human
Protocol: Anaspec Inc.). JC-1 preferentially accumulates in mitochondria as red aggregates in normal conditions but it exists as green monomers in the cytosol when MMP collapsed during apoptosis. The ratio of red/green fluorescence correlates with MMP. […] Next, 5 μg/ml JC-1 was added and incubated at 37° C. for 15 min in dark. After wash three times with PBS, MMP was measured at 535/590 nm (Ex/Em) for red fluorescence and 485/535 (Ex/Em) for green fluorescence using a fluorescence multimode microplate reader (Infinite 200; Tecan). Results were calculated as the ratio of red-to-green fluorescence and the values were expressed as the percentage over control.

Bcl-2, Bax, cytochrome c = experiment: Immunoblot analysis of Bcl-2, Bax, cytochrome c; assay type: cell-based, human
Protocol: Whole cell proteins were extracted using RIPA buffer (PBS, 1% NP-40, 0.5% Na deoxycholate, 0.1% SDS, 0.1 mg/ml PMSF, 30 mg/ml aprotinin, 1 mM Na3VO4). Cells were washed twice with PBS, lysed with RIPA buffer for 30 min on ice, and then centrifuged at 14,000×g for 10 min at 4° C. The supernatants were used as the total cell lysates. In some experiments, mitochondrial fraction was prepared from SH-Sy5Y cells using mitochondrial/cytosolic fraction kit (Biovision, Inc., Mountain View) according to the manufacturer's protocol. Protein concentration was determined by BCA protein assay kit (BioRad, Hercules, Calif.) using bovine serum albumin as a standard. […] The membrane was flocked in fresh blocking buffer (5% nonfat dry milk in Tris-buffered saline, pH 7.4, and containing 0.1% Tween 20) for 2 h at room temperature and rinsed in TBST buffer (0.1% Tween 20 in Tris-buffered saline, pH 7.4). The membrane was incubated at 4° C. with the following primary antibodies at dilutions of 1/1000: Bax, cytochrome c, Cox-4 or 1/4000: Bcl-2, actin. After three times washing with TBST buffer, membranes were incubated with horse radish peroxidase (HRP)-conjugated secondary antibodies (1:2000 dilutions) for 2 h at room temperature. Subsequently, the membrane was washed in TBST and the immunoreactive bands were detected by ECL chemiluminescence kit (GE Healthcare, USA). Protein bands were quantified by densitometric analysis.

Primary rat hepatocytes = experiment: Microarray gene expression profiling (Affymetrix Rat Expression Array 230A); assay type: cell-based; conditions: 100 μM UDCA, 24 h
Protocol: We determined the global profile of genes regulated by UDCA by using Affymetrix GeneChip® Rat Expression Array 230A, consisting of approximately 16,000 transcripts and variants. cRNA prepared from vehicle-treated cells was used for comparative analysis. The relative levels of gene expression after 24 h treatment of hepatocytes with 100 μM UDCA were compared by plotting the average difference between cells, and determining the fold change in gene expression. […] We also assessed the specificity and sensitivity of the microarray analysis. Hierarchical clustering was performed using specific gene subsets.

SH-SY5Y cells [9] = experiment: NO production (Griess reagent, nitrite); assay type: cell-based, human; conditions: SNP 24 h
Protocol: (§2) After washing with Hank's balanced salt solution (HBSS), cells were incubated with 20 μM H2DCFDA or 50 μM DHR at 37° C. for 30 min, and then rinsed with HBSS. The fluorescence intensity was measured using an automatic fluorescence microplate reader (SpectraMax M2, Molecular Devices) at an excitation wavelength of 485 nm and an emission of 535 nm. The values were expressed as a percentage of fluorescence intensity to the untreated control group. The production of NO was determined by measuring nitrite, a stable oxidation product of NO in the culture medium. […] After a 10-min reaction, the absorbance at 550 nm was measured in a microplate reader (VersaMax, Molecular Devices). Sodium nitrite (NaNO2) was used as a standard to calculate nitrite concentrate and the values were expressed in micromoles.

SH-SY5Y cells [10] = experiment: Total ROS production (H2DCFDA); assay type: cell-based, human; conditions: 1 mM SNP
Protocol: as §2

SH-SY5Y cells [11] = experiment: Nuclear staining (Hoechst 33342/PI) for apoptosis and necrosis; assay type: cell-based, human; conditions: pretreatment prior to SNP 1 mM 24 h
Protocol: For the fluorescent detection of apoptotic and necrotic cells, nuclear staining with Hoechst dye 33342 and propidium iodide (PI) was performed. SH-SY5Y cells were exposed to SNP (1 mM) for 24 h with or without pretreatment with UDCA or YS. After fixation with 1% paraformaldehyde (PBS) for 30 min at room temperature, cells were washed with PBS and then stained with Hoechst 33342 (10 μM) for 10 min. Cells were washed with PBS and further stained with PI (10 μM) for 10 min. Stained cells were washed with PBS and observed under a fluorescent microscopy. The apoptotic cells were determined as bright condensed and fragmented nuclei. PI positive cells stained with pink to red color were counted as necrotic cells.

C[C@H](CCC(=O)[O-])[C@H]1CC[C@H]2[C@@H]3[C@@H](O)C[C@@H]4C[C@H](OP(=O)([O-])O)CC[C@]4(C)[C@H]3CC[C@]12C.[Na+].[Na+] [Compound 3, 3-(Phosphonatooxy)-ursodeoxycholic acid sodium salt]
decomposition by 31P NMR in buffer [1]: Neither compound showed decomposition

C[C@H](CCC(=O)[O-])[C@H]1CC[C@H]2[C@@H]3[C@@H](OCOP(=O)(O)O)C[C@@H]4C[C@H](O)CC[C@]4(C)[C@H]3CC[C@]12C.C[C@H](CCC(=O)[O-])[C@H]1CC[C@H]2[C@@H]3[C@@H](OCOP(=O)(O)O)C[C@@H]4C[C@H](O)CC[C@]4(C)[C@H]3CC[C@]12C.[Na+].[Na+] [Compound 13b, 7-(Phosphonooxymethoxy)-ursodeoxycholic acid sodium salt]
stability in D2O solution overnight ([2]; D2O, overnight): a significant portion of the material decomposed
aqueous solubility, rapidly dissolving at all concentrations tested [3]: ≥ 10 mg/mL

CC(CCC(=O)OCOP(=O)(O)O)C1CCC2C3C(O)CC4CC(O)CCC4(C)C3CCC12C (stereo not shown) [Compound 19b, ursodeoxycholic acid phosphonooxymethoxy ester]
percent starting material remaining [2]: 36%
stability on cold storage [2]: stable for extended periods of time when stored in a freezer
aqueous solubility, rapidly dissolving at all concentrations tested [3]: ≥ 20 mg/mL

CC(CCC(=O)OCOP(=O)(O)O)C1CCC2C3C(O)CC4CC(O)CCC4(C)C3CCC12C (stereo not shown) [Compound 19c, ursodeoxycholic acid phosphonooxymethoxy ester]
percent starting material remaining [2]: 34%

CC(CCC(=O)OCOP(=O)(O)O)C1CCC2C3C(O)CC4CC(O)CCC4(C)C3CCC12C (stereo not shown) [Compound 19d, ursodeoxycholic acid phosphonooxymethoxy ester]
decomposition by 31P NMR in buffer [1]: Neither compound showed decomposition
percent remaining in pH 7.4 tris buffer [4]: 81%
percent starting material remaining [2]: 88%
chemical stability in solution ([2]; solution, ambient temperature): decomposed at a much slower rate
stability on cold storage ([2]; listed as mono-Tris salt of 19): stable for extended periods when stored cold
rate of alkaline phosphatase catalyzed release of UDCA [5]: more rapidly released
aqueous solubility, rapidly dissolving at all concentrations tested [3]: > 20 mg/mL

COc1ccc2c(c1)c(C1=C(c3c[nH]c4ccccc34)C(=O)NC1=O)cn2CCCN(C)C [Go6983]
cell viability, inhibitor alone (SH-SY5Y cells [6]): had no effects on cell viability
impact on UDCA-mediated protection against SNP-induced cytotoxicity (SH-SY5Y cells [7]): did not have significant impact

O=c1cc(N2CCOCC2)oc2c(-c3ccccc3)cccc12 [LY294002]
impact on UDCA-mediated protection against SNP-induced cytotoxicity (SH-SY5Y cells [7]): reversed

C[C@H](CCC(=O)NCCS(=O)(=O)O)[C@H]1CC[C@H]2[C@@H]3[C@@H](O)C[C@@H]4C[C@H](O)CC[C@]4(C)[C@H]3CC[C@]12C [TUDCA, tauroursodeoxycholic acid]
Bax-induced alterations in mitochondrial membrane polarity (mitochondrial membrane; FIG. 1): prevents
Bax-induced alterations in mitochondrial membrane protein order (mitochondrial membrane; FIG. 2): prevents

C[C@H](CCC(=O)O)[C@H]1CC[C@H]2[C@@H]3[C@@H](O)C[C@@H]4C[C@H](O)CC[C@]4(C)[C@H]3CC[C@]12C [UDCA, ursodeoxycholic acid]
activity at 50 µM (SH-SY5Y cells [8]; Homo sapiens, SH-SY5Y, 50 μM pretreatment, 1 mM SNP 12 h, read-out: MMP, % of control group): 71%
activity at 100 µM (SH-SY5Y cells [8]; Homo sapiens, SH-SY5Y, 100 μM pretreatment, 1 mM SNP 12 h, read-out: MMP, % of control group): 88%
activity at 200 µM (SH-SY5Y cells [8]; Homo sapiens, SH-SY5Y, 200 μM pretreatment, 1 mM SNP 12 h, read-out: MMP, % of control group): 87%
MMP, substance alone (SH-SY5Y cells [8]; no SNP, FIG. 4B): did not show any alterations in MMP
ratio of Bcl-2/Bax (Bcl-2, Bax, cytochrome c; UDCA per se): 2.52±0.16 fold of control
ratio of Bcl-2/Bax (Bcl-2, Bax, cytochrome c; pretreatment with UDCA prior to SNP treatment): 2.21±0.09 fold of control
cytochrome c release from the mitochondria into the cytosol (Bcl-2, Bax, cytochrome c; pretreatment with UDCA, SNP 1 mM): 1.41±0.06 fold of control
altered genes fulfilling the filtering criteria (Primary rat hepatocytes): 96 genes
genes down-regulated (Primary rat hepatocytes): 68 genes
genes up-regulated (Primary rat hepatocytes): 28 genes
genes with alterations in expression, greater than 1.5-fold change (Primary rat hepatocytes): Approximately 441 genes
share of genes with alterations in expression (Primary rat hepatocytes): ~2.76%
cell viability, substance alone (SH-SY5Y cells [7]; 24 h at doses of 50-200 μM, no SNP): no obvious change in the viability
SNP-induced loss of cell viability / cytotoxicity (SH-SY5Y cells [7]; pretreatment 1 h, then 1 mM SNP 24 h): prevented; also recorded: significantly attenuated
NO production compared with the group treated with SNP alone (SH-SY5Y cells [9]; 50 μM pretreatment): 91.44%
NO production compared with the group treated with SNP alone (SH-SY5Y cells [9]; 100 μM pretreatment): 82.88%
NO production compared with the group treated with SNP alone (SH-SY5Y cells [9]; 200 μM pretreatment): 77.26%
ROS generation, % of SNP-treated group (SH-SY5Y cells [10]; 50 μM pretreatment): 79.68%
ROS generation, % of SNP-treated group (SH-SY5Y cells [10]; 100 μM pretreatment): 72.59%
ROS generation, % of SNP-treated group (SH-SY5Y cells [10]; 200 μM pretreatment): 58.09%
apoptotic rate (SH-SY5Y cells [11]): 8.45±2.01%
